According to patent US9816227B2, “Textile products with herbal composition to render the fabrics insects repellent” (priority 2013, dated 2017):

Columns and labels:
[1] = exposed to light and water; cited from earlier work
[2] = test system: desert locust (Schistocerca gregaria); details: in vivo; cited from earlier work
[3] = test system: insects (larvae, pupae, adults); assay: Exposure of insect larvae: inhibition of development to pupae and adults; assay type: in vivo
From the text: The possible effect of azadirachtin and other bioflavonoids including azadiradione, fraxinellone, nimbin, salannin, salannol, vepinin and vilasinin, the active components of the Neem seed oil extract, are inhibiting molting in larvae to pupae and adults of the most of the insects. Apart from delayed lethal action, effects on the pupation, adult emergence, and size of pupae or adults have been also observed. […] The compounds are characterized by their inhibition or prevention of formation of adult morphology. The effects on pupae (based on proportion of undeveloped individuals) and adults (based on incomplete development, attachment to puparia, or inability to fly) are dose-dependent.
No adults of insects are obtained at doses of 1.10, 10 and 100 μg/ml. These concentrations cause about 100% mortality of larvae or developed pupae. […] The treatments with 0.00001 and 0.001 μg/ml would result in an insignificant increase (0.8-1.6%) in the female wing length/width.

Compound: C/C=C(\C)C(=O)O[C@H]1C[C@@H](OC(C)=O)[C@@]2(C(=O)OC)CO[C@H]3[C@@H](O)[C@@](C)([C@]45O[C@@]4(C)[C@H]4C[C@@H]5O[C@@H]5OC=C[C@@]54O)[C@H]4[C@]1(CO[C@]4(O)C(=O)OC)[C@@H]32 [azadirachtin, dimethyl (2aR,3S,4S,R,S,7aS,8S,10R,10aS,10bR)-10-(acetyloxy)-3,5-dihydroxy-4-[(1S,2S,6S,8S,9R,11S)-2-hydroxy-11-methyl-5,7,10-trioxatetracyclo[6.3.1.02,6.09,11]dodec-3-en-9-yl]-4-methyl-8-{[(2E)-2-methylbut-2-enoyl]oxy}octahydro-1H-furo[3′,4′:4,4a]naphtho[1,8-bc]furan-5,10a(8H)-dicarboxylate]
- degradation time [1]: ≤ 100 h
- feeding inhibitor activity [2]: active
- increase in the female wing length/width ([3]; 0.00001 and 0.001 μg/ml, insignificant): 0.8-1.6%
- effect on wing dimensions of females ([3]; 0.001, 0.01 and 0.1 μg/ml): do not significantly affect
- pupal weights and dimensions, adult weights, wing dimensions, or interocular distances ([3]; treatment of larvae with 0.00001 to 0.1 μg/ml): significant reductions
